In patent publication US9085587B2, “Inhibitors of hepatitis C virus” (priority 2010, dated 2015):
Read-outs that look alike come from different tables or passages of the source.

Tested on: HCV 1b replication (bicistronic genotype 1b replicon in Huh 7 cells)
Experiment: HCV 1b replicon assay (1b_Huh-Luc/Neo-ET cell line, luciferase readout)
Assay type: cell-based
Details: Hepatitis C virus
Method: Biological activity of the compounds of the invention was determined using an HCV replicon assay. The 1b_Huh-Luc/Neo-ET cell line persistently expressing a bicistronic genotype 1b replicon in Huh 7 cells was obtained from ReBLikon GMBH. This cell line was used to test compound inhibition using luciferase enzyme activity readout as a measurement of compound inhibition of replicon levels.
On Day 1 (the day after plating), each compound was added in triplicate to the cells. Plates were incubated for 72 hours prior to running the luciferase assay. Enzyme activity was measured using a Bright-Glo Kit (cat. number E2620) manufactured by Promega Corporation. The following equation was used to generate a percent control value for each compound. % Control=(Average Compound Value/Average Control)*100
The EC50 value was determined using GraphPad Prism and the following equation: Y=Bottom+(Top-Bottom)/(1+10^((Log IC50−X)*HillSlope))
EC50 values of compounds were repeated several times in the replicon assay.

[1] = Huh-7, 1b_Huh-Luc/Neo-ET cell line, 72 hours, luciferase readout, read-out: EC50, concentration effective to produce a half-maximal inhibition of HCV 1b replication
[2] = Huh-7, class symbols, genotype 1b replicon, read-out: Inhibition of HCV genotype 1b replicon
[3] = Huh-7, numeric EC50, genotype 1b replicon, read-out: Inhibition of HCV genotype 1b replicon (EC50)

Structure (SMILES)	EC50 (Huh-7, read-out: Inhibition of HCV genotype 1b replicon)	EC50 [1]	EC50 [2]	EC50 [3]
CNC(=O)c1c(-c2ccc(F)cc2)oc2cc3c(cc12)[C@H](C)O[C@H](COC(=O)C1CCNCC1)CN3S(C)(=O)=O [Compound 8265]	< 0.01 µM	≤ 0.01 µM	–	–
C=C1CCCN(S(C)(=O)=O)c2cc3oc(-c4ccc(F)cc4)c(C(=O)NC)c3cc21 [Compound B4]	–	0.01 to 0.1 µM	0.01 to 0.1 µM	–
CNC(=O)c1c(-c2ccc(F)cc2)oc2cc3c(cc12)C(C)=CCCN3S(C)(=O)=O [Compound B6]	–	0.01 to 0.1 µM	0.01 to 0.1 µM	–
CNC(=O)c1c(-c2ccc(F)cc2)oc2cc3c(cc12)C(=O)CCCN3S(C)(=O)=O [Compound B7]	–	0.01 to 0.1 µM	0.01 to 0.1 µM	–
CNC(=O)c1c(-c2ccc(F)cc2)oc2cc3c(cc12)C(O)CCCN3S(C)(=O)=O (centres unmarked) [Compound B8]	–	–	–	0.106 µM
CNC(=O)c1c(-c2ccc(F)cc2)oc2cc3c(cc12)C1(CCCN3S(C)(=O)=O)CC1 [Compound B9]	–	0.01 to 0.1 µM	0.01 to 0.1 µM	–
CNC(=O)c1c(-c2ccc(F)cc2)oc2cc3c(cc12)[C@@H](C)CCCN3S(C)(=O)=O [Compound B16]	–	0.01 to 0.1 µM	–	0.0457 µM
CONC(=O)c1c(-c2ccc(F)cc2)oc2cc3c(cc12)CCCCN3S(C)(=O)=O [Compound B18]	–	0.01 to 0.1 µM	0.01 to 0.1 µM	–
CNC(=O)c1c(-c2ccc(F)cc2)oc2cc3c(cc12)CCN3S(C)(=O)=O [Compound B21]	–	–	0.1 to 1 µM	–
C=C1CCCN(S(C)(=O)=O)c2cc3oc(-c4ccc(F)cc4F)c(C(=O)NC)c3cc21 [Compound B29]	–	0.01 to 0.1 µM	–	0.0561 µM
C=C1CCCN(S(C)(=O)=O)c2cc3oc(-c4ccccc4F)c(C(=O)NC)c3cc21 [Compound B31]	–	0.01 to 0.1 µM	0.01 to 0.1 µM	–
CNC(=O)c1c(-c2ccccc2F)oc2cc3c(cc12)C(C)=CCCN3S(C)(=O)=O [Compound B32]	–	0.01 to 0.1 µM	0.01 to 0.1 µM	–
CNC(=O)c1c(-c2ccccc2F)oc2cc3c(cc12)C(C)CCCN3S(C)(=O)=O (centres unmarked) [Compound B33]	–	≤ 0.01 µM	< 0.01 µM	–
CNC(=O)c1c(-c2ccc(F)cc2F)oc2cc3c(cc12)C(C)=CCCN3S(C)(=O)=O [Compound B34]	–	0.01 to 0.1 µM	0.01 to 0.1 µM	–
CNC(=O)c1c(-c2ccc(F)cc2F)oc2cc3c(cc12)C(C)CCCN3S(C)(=O)=O (centres unmarked) [Compound B35]	–	≤ 0.01 µM	< 0.01 µM	–
CNC(=O)c1c(-c2ccc(F)cc2F)oc2cc3c(cc12)C(CO)CCCN3S(C)(=O)=O (centres unmarked) [Compound B36]	–	0.01 to 0.1 µM	0.01 to 0.1 µM	–
CNC(=O)c1c(-c2ccc(Oc3ccc(F)cc3)cc2)oc2cc3c(cc12)[C@H](C)O[C@H](COC)CN3S(C)(=O)=O [Compound B243]	–	≤ 0.01 µM	< 0.01 µM	–
CNC(=O)c1c(-c2ccc(Oc3ccc(F)cc3)cc2)oc2cc3c(cc12)[C@H](C)O[C@H](COC(=O)C(C)(C)C)CN3S(C)(=O)=O [Compound B244]	–	≤ 0.01 µM	< 0.01 µM	–
CNC(=O)c1c(-c2ccc(Oc3ccc(F)cc3)cc2)oc2cc3c(cc12)[C@H](C)O[C@H](COC(=O)CCC(=O)O)CN3S(C)(=O)=O [Compound B245]	–	≤ 0.01 µM	< 0.01 µM	–
CNC(=O)c1c(-c2ccc(Oc3ccc(F)cc3)cc2)oc2cc3c(cc12)[C@H](C)O[C@H](COC(=O)c1cccnc1)CN3S(C)(=O)=O [Compound B246]	–	≤ 0.01 µM	< 0.01 µM	–
CNC(=O)c1c(-c2ccc(F)cc2)nn2cc3c(cc12)C(C)OC(CS(C)(=O)=O)CN3S(C)(=O)=O (centres unmarked) [Compound B247]	–	≤ 0.01 µM	0.01 to 0.1 µM	–
CNC(=O)c1c(-c2ccc(F)cc2)oc2cc3c(cc12)[C@H](C)O[C@H](COC(=O)[C@@H](N)C(C)C)CN3S(C)(=O)=O [Compound B248]	–	≤ 0.01 µM	< 0.01 µM	–
CNC(=O)c1c(-c2ccc(F)cc2)oc2cc3c(cc12)[C@H](C)O[C@H](COC(=O)[C@H](C)N)CN3S(C)(=O)=O [Compound B249]	–	≤ 0.01 µM	< 0.01 µM	–
CNC(=O)c1c(-c2ccc(Oc3ccc(F)cc3)cc2)nn2cc3c(cc12)C(C)OC(CO)CN3S(C)(=O)=O (centres unmarked) [Compound B250]	–	–	0.01 to 0.1 µM	–
CNC(=O)c1c(-c2ccc(Oc3ccc(F)cc3)cc2)nn2cc3c(cc12)C(C)OC(CS(C)(=O)=O)CN3S(C)(=O)=O (centres unmarked) [Compound B251]	–	–	0.01 to 0.1 µM	–

Structure (SMILES)	EC50 (Huh-7, read-out: Inhibition of HCV genotype 1b replicon)	EC50 [1]	EC50 [2]	EC50 [3]
CNC(=O)c1c(-c2ccc(F)cc2)oc2cc3c(cc12)[C@H](C)O[C@H](COC(=O)CN(C)C)CN3S(C)(=O)=O [Compound B252]	–	≤ 0.01 µM	< 0.01 µM	–
CNC(=O)c1c(-c2ccc(F)cc2)oc2cc3c(cc12)[C@H](C)O[C@H](COC(=O)CN)CN3S(C)(=O)=O [Compound B253]	–	≤ 0.01 µM	< 0.01 µM	–
CNC(=O)c1c(-c2ccc(Oc3ccc(F)cc3)cc2)oc2cc3c(cc12)[C@H](C)O[C@H](COC(=O)CN)CN3S(C)(=O)=O [Compound B254]	–	≤ 0.01 µM	< 0.01 µM	–
CNC(=O)c1c(-c2ccc(F)cc2)oc2cc3c(cc12)[C@H](C)O[C@H](COP(=O)(O)O)CN3S(C)(=O)=O [Compound B255]	–	≤ 0.01 µM	< 0.01 µM	–
CNC(=O)c1c(-c2ccc(F)cc2)oc2cc3c(cc12)[C@H](C)O[C@H](COC(=O)COCCOCCOC)CN3S(C)(=O)=O [Compound B256]	–	≤ 0.01 µM	< 0.01 µM	–
CONC(=O)c1c(-c2ccc(F)cc2)oc2cc3c(cc12)[C@H](C)O[C@H](CO)CN3S(C)(=O)=O [Compound B257]	–	≤ 0.01 µM	< 0.01 µM	–
CNC(=O)c1c(-c2ccc(F)cc2)oc2cc3c(cc12)[C@H](C)O[C@H](COC(=O)COCCOCCOCCOC)CN3S(C)(=O)=O [Compound B258]	–	≤ 0.01 µM	< 0.01 µM	–
CNC(=O)c1c(-c2ccc(F)cc2)oc2cc3c(cc12)[C@H](C)O[C@H](COC(=O)COCCOCCOCCOCCOC)CN3S(C)(=O)=O [Compound B259]	–	≤ 0.01 µM	< 0.01 µM	–
CNC(=O)c1c(-c2ccc(F)cc2)oc2cc3c(cc12)[C@H](C)O[C@H](COC)CN3S(C)(=O)=O [Compound B260]	–	≤ 0.01 µM	< 0.01 µM	–
CNC(=O)c1c(-c2ccc(F)cc2)oc2cc3c(cc12)[C@H](C)O[C@H](COC(=O)C(C)(C)C)CN3S(C)(=O)=O [Compound B261]	–	≤ 0.01 µM	< 0.01 µM	–
CNC(=O)c1c(-c2ccc(F)cc2)oc2cc3c(cc12)[C@H](C)O[C@H](COC(=O)CCC(=O)O)CN3S(C)(=O)=O [Compound B262]	–	0.01 to 0.1 µM	0.01 to 0.1 µM	–
CNC(=O)c1c(-c2ccc(F)cc2)oc2cc3c(cc12)[C@H](C)O[C@H](COC(=O)c1cccnc1)CN3S(C)(=O)=O [Compound B263]	–	≤ 0.01 µM	< 0.01 µM	–
CNC(=O)c1c(-c2ccc(F)cc2)oc2cc3c(cc12)[C@H](C)O[C@H](COC(=O)CC1CCNCC1)CN3S(C)(=O)=O [Compound B264]	–	0.01 to 0.1 µM	0.01 to 0.1 µM	–
CNC(=O)c1c(-c2ccc(F)cc2)oc2cc3c(cc12)[C@H](C)O[C@H](COC(=O)[C@@H]1CCCN1)CN3S(C)(=O)=O [Compound B266]	–	≤ 0.01 µM	< 0.01 µM	–
CNC(=O)c1c(-c2ccc(F)cc2)oc2cc3c(cc12)[C@H](C)O[C@H](COCCOC)CN3S(C)(=O)=O [Compound B267]	–	≤ 0.01 µM	< 0.01 µM	–
CNC(=O)c1c(-c2ccc(F)cc2)oc2cc3c(cc12)[C@H](C)O[C@H](COCCOCCOC)CN3S(C)(=O)=O [Compound B268]	–	≤ 0.01 µM	< 0.01 µM	–
CC[C@H](C)[C@H](N)C(=O)OC[C@@H]1CN(S(C)(=O)=O)c2cc3oc(-c4ccc(F)cc4)c(C(=O)NC)c3cc2[C@H](C)O1 [Compound B269]	–	≤ 0.01 µM	< 0.01 µM	–
CNC(=O)c1c(-c2ccc(F)cc2)oc2cc3c(cc12)[C@H](C)O[C@H](COC(=O)[C@@H](N)[C@@H](C)OC)CN3S(C)(=O)=O [Compound B270]	–	≤ 0.01 µM	< 0.01 µM	–
CNC(=O)c1c(-c2ccc(F)cc2)oc2cc3c(cc12)[C@H](C)O[C@H](COC(=O)[C@@H](N)CC(C)C)CN3S(C)(=O)=O [Compound B271]	–	≤ 0.01 µM	< 0.01 µM	–
CNC(=O)c1c(-c2ccc(F)cc2)oc2cc3c(cc12)[C@H](C)O[C@H](COC(=O)[C@@H](N)c1ccccc1)CN3S(C)(=O)=O [Compound B272]	–	≤ 0.01 µM	< 0.01 µM	–
CNC(=O)c1c(-c2ccc(F)cc2)oc2cc3c(cc12)[C@H](C)O[C@H](COC(=O)[C@@H](C)N)CN3S(C)(=O)=O [Compound B273]	–	≤ 0.01 µM	< 0.01 µM	–
CNC(=O)c1c(-c2ccc(F)cc2)oc2cc3c(cc12)[C@H](C)O[C@@H](CO)CN3S(C)(=O)=O [Compound B274]	–	–	0.01 to 0.1 µM	–
CNC(=O)c1c(-c2ccc(F)cc2)oc2cc3c(cc12)[C@H](C)O[C@H](COC[C@H]1COC(C)(C)O1)CN3S(C)(=O)=O [Compound B275]	–	≤ 0.01 µM	< 0.01 µM	–
CNC(=O)c1c(-c2ccc(F)cc2)oc2cc3c(cc12)[C@H](C)O[C@H](COC(=O)N1CCC(N2CCCCC2)CC1)CN3S(C)(=O)=O [Compound B276]	–	≤ 0.01 µM	< 0.01 µM	–
CNC(=O)c1c(-c2ccc(F)cc2)oc2cc3c(cc12)[C@H](C)O[C@H](COC(=O)[C@@H](N)Cc1cnc[nH]1)CN3S(C)(=O)=O [Compound B277]	–	≤ 0.01 µM	< 0.01 µM	–
